Test results as given in PubChem BioAssay (NCI).
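Tested at 5 concentrations; 48 h exposure; 96-well plates; endpoints linearly interpolated, else capped at highest concentration. TGI marks complete inhibition of growth.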 Where a SMILES comes first, the peptide text is derived from it. The star is where a group is joined. Boc = CC(C)(C)OC(=O)*

Key:
Experiment in all cases: NCI tumour cell line growth inhibition, 48 h
A549 NSCLC = test system: A549 NSCLC
K-562 leukemia = test system: K-562 leukemia
LOX IMVI melanoma = test system: LOX IMVI melanoma
MDA-N = test system: MDA-N
MOLT-4 leukemia = test system: MOLT-4 leukemia
OVCAR-3 ovarian = test system: OVCAR-3 ovarian
PC-3 prostate = test system: PC-3 prostate
RPMI-8226 leukemia = test system: RPMI-8226 leukemia
RXF 393 renal = test system: RXF 393 renal
SW-620 colon = test system: SW-620 colon
T-47D breast = test system: T-47D breast

Compound	TGI (A549 NSCLC)	TGI (K-562 leukemia)	TGI (LOX IMVI melanoma)	TGI (MDA-N)	TGI (MOLT-4 leukemia)	TGI (OVCAR-3 ovarian)	TGI (PC-3 prostate)	TGI (RPMI-8226 leukemia)	TGI (RXF 393 renal)	TGI (SW-620 colon)	TGI (T-47D breast)
Cn1cnc(N2CCCC2)c(C#N)c1=S	> 100 µM	> 100 µM	> 100 µM	> 100 µM	> 100 µM	> 100 µM	> 100 µM	> 100 µM	> 100 µM	> 100 µM	> 100 µM
O=C(CCBr)N1CCN(C(=O)CCBr)CC1	140 µM	459 µM	165 µM	225 µM	215 µM	218 µM	500 µM	394 µM	150 µM	218 µM	232 µM
CCC(=O)Nc1cccc(N=Cc2ccc(OC(=O)/C=C\c3ccccc3)cc2)c1	> 75 µM	> 75 µM	> 75 µM	> 75 µM	> 75 µM	> 75 µM	> 75 µM	> 75 µM	48.1 µM	> 75 µM	37.7 µM
Cn1c(-c2ccc[se]2)ccc1-c1ccc(C=O)[se]1	> 100 µM	> 100 µM	30.1 µM	> 100 µM	> 100 µM	5.71 µM	> 100 µM	> 70.2 µM	7.14 µM	> 51.6 µM	12.4 µM
O=c1c2c3c(sc2nc2n1N=CN(c1ccccc1)C2)CCCC3	> 100 µM	> 100 µM	> 100 µM	> 100 µM	> 100 µM	> 100 µM	> 100 µM	> 100 µM	> 100 µM	> 100 µM	> 100 µM
COc1ccc2nc3c([N+](=O)[O-])ccc(NCCN(C)C)c3c(N)c2c1	3.29 µM	0.607 µM	1.08 µM	3.19 µM	2.46 µM	3.31 µM	2.81 µM	0.557 µM	3.36 µM	0.562 µM	2.91 µM
CC(=O)C1=C(C)O[C@@H]2O[C@H](COCc3ccccc3)[C@@H](OCc3ccccc3)[C@H](O)[C@@H]2S1	> 100 µM	50.3 µM	38.9 µM	51.7 µM	33.3 µM	29.4 µM	77.3 µM	42.6 µM	47.7 µM	75.5 µM	21.5 µM
Cc1cc2nc3c(C#N)c4c(c(Nc5ccc(F)cc5)n3c2cc1C)CCC4	> 100 µM	> 100 µM	> 100 µM	> 100 µM	> 100 µM	> 100 µM	> 100 µM	> 100 µM	> 100 µM	> 100 µM	> 100 µM
COC(=O)C(Cc1ccccc1)NC(=O)C(CS)NC(=O)OC(C)(C)C (stereo not drawn) (Boc-Cys-Phe-OMe; configuration not given here)	> 100 µM	> 100 µM	> 100 µM	> 100 µM	41.3 µM	> 100 µM	> 100 µM	> 100 µM	> 100 µM	> 100 µM	> 100 µM
Cc1ccc(S(=O)(=O)N2CCC[C@@H]2C(=O)O[C@@H]2CCC3CC=CC32)cc1 (stereo partly drawn)	> 100 µM	> 100 µM	38.9 µM	78.6 µM	> 100 µM	38.8 µM	69.6 µM	61.3 µM	66.5 µM	> 100 µM	> 100 µM
CC(C)C(Nc1ncnc2nc[nH]c12)C(=O)O (stereo not drawn)	> 100 µM	> 100 µM	> 100 µM	> 100 µM	–	> 100 µM	> 100 µM	> 100 µM	> 100 µM	> 100 µM	> 100 µM
CCOC(=O)/C=C(/C(=O)OCC)n1cc(C)c(=O)n(Cc2cnnn2COCCOC(C)=O)c1=O	> 84.2 µM	24.8 µM	32 µM	48.5 µM	18.8 µM	32.3 µM	37.7 µM	23.8 µM	29.6 µM	> 55.6 µM	46.7 µM
CCN1c2ccccc2NC(=S)c2c1n[nH]c2-c1ccccc1	84.5 µM	39.8 µM	> 100 µM	32.6 µM	38.2 µM	> 100 µM	84.6 µM	43.9 µM	> 100 µM	84.7 µM	74.5 µM
COC1/C=C/C=C(/C)Cc2cc(O)c(Cl)c(c2)N(C)C(=O)CC(OC(=O)C(C)C)C2(C)OC2C(C)C2CC1(O)NC(=O)O2 (stereo not drawn)	> 100 µM	> 100 µM	> 100 µM	< 0.01 µM	> 100 µM	> 100 µM	> 100 µM	> 100 µM	> 100 µM	> 100 µM	> 100 µM
